Paper PMC6691816, “Discovery of aminopyridine-containing spiro derivatives as EGFR mutations inhibitors” (Journal of Enzyme Inhibition and Medicinal Chemistry, 2019)

Key:
Format in all cases: biochemical
HER2 [1] = biological target: T1, HER2 (Homo sapiens, UniProt P04626); test: HER2 protein kinase assay (33PanQinase), single concentration; conditions: 0.5 μM (5 × 10^−7 M), singlicate, % of control activity; read-out: Residual activity under 0.5 μM drug concentration (%) HER2
T1 construct: purchased ProQinase GmbH
Protocol: (§1) The inhibitory profile of 16 compounds was determined using two protein kinases. The compounds were tested at a concentration of 5 × 1 0^−7 M, in singlicate. The compounds were solved and diluted to 5 × 10^−5 M stock solutions in 100% DMSO according to the customer-filled CSF. 10 μL of each of the stock solutions were transferred into […] of a 96-well, Column 1 and 2 of the plate were filled with 10 μL100% DMSO. The plate is in the following referred to as “copy plate”. In the process, 90 μL H2O were added to each well of the copy plate. To minimize potential compound precipitation, the H2O was added to each well only a few minutes before the transfer of the compound solutions into the assay plates. The plate was shaken thoroughly, resulting in a “compound dilution plate” with a compound concentration of 5 × 10^−6 M/10% DMSO. This plate was used for the transfer of 5 μL compound solution into the assay plates. The final volume of the assay was 50 μL. All compounds were tested at 5 × 1 0^−7 M in singlicate. The final DMSO concentration in the reaction cocktails was 1% in all cases. The compound dilution plate was disposed.
(§2) A radiometric protein kinase assay (33PanQinase® Activity Assay) was used for measuring the kinase activity of the two protein kinases. All kinase assays were performed in 96-well FlashPlatesTM from PerkinElmer (Boston, MA, USA) in a 50 μL reaction volume. The reaction cocktail was pipetted in 4 steps in the following order: 20 μL of assay buffer, 5 μL of ATP solution (in H2O), 5 μL of test compound (in 10% DMSO), 20 μL enzyme/subtrate mix. The assay for both protein kinases contained 70 mM HEPES-NaOH pH 7.5, 3 mM MgCl2, 3 mM MnCl2, 3 μM Na-orthovanadate, 1.2 mM DTT, ATP. The assay for ERBB2 additionally contained 50 μg/mLPEG20000. The reaction cocktails were incubated at 30 °C for 60 min. The reaction was stopped with 50 μL of 2% (v/v) H3PO4, plates were aspirated and washed two times with 200 μL 0.9% (w/v) NaCl. Incorporation of 33Pi was determined with a microplate scintillation counter (Microbeta, Wallac). All assays were performed with a BeckmanCoulter/SAGIAN™Core System. The median value of the counts in column 1 (n = 8) of each assay plate was defined as “low control”. This value reflects unspecific binding of radioactivity to the plate in the absence of a protein kinase but in the presence of the substrate. The median value of the counts in column 2 of each assay plate (n = 8) was taken as the “high control”. As part of the data evaluation the low control value from a particular plate was subtracted from the high control value as well as from all 80 “compound values” of the corresponding plate. The residual activity (in %) for each well of a particular plate was calculated by using the following formula: Res. Activity (%) = 100 × [(cpm of compound – low control)/(high control − low control)]

EGF-R wt [2] = biological target: T2, EGF-R wt (Homo sapiens, UniProt P00533); test: EGFR-wt protein kinase assay (33PanQinase), single concentration; conditions: 0.5 μM (5 × 10^−7 M), singlicate, % of control activity; read-out: Residual activity under 0.5 μM drug concentration (%) EGF-R wt
T2 construct: purchased ProQinase GmbH
Protocol: as §1, §2

EGF-R d752-759 = EGF-R d752-759 (Homo sapiens, UniProt P00533, DEL752-759); test: Radiometric protein kinase IC50 assay (33PanQinase)
Protocol: (§3) The compounds were serially diluted in semi-log steps with 100% DMSO in a 96 well microtiter plate. The concentration range of this serial dilution was 1 × 10^−3 M to 3 × 10^−8 M. Directly before use the test compounds were further diluted 1:10 with water, resulting in a concentration range from 1 × 10^−4 M to 3 × 1 0^−9 M in 10% DMSO. For the assays, 5 μL from each concentration were transferred into the assay. The final volume of the assay was 50 μL. The compounds were tested at 10 final assay concentrations in the range from 1 × 10^−5 M to 3 × 10^−10 M. The final DMSO concentration in the reaction cocktails was 1% in all cases.
(§4) A radiometric protein kinase assay (33PanQinase® Activity Assay) was used for measuring the kinase activity of the 9 protein kinases. All kinase assays were performed in 96-well FlashPlatesTM from Perkin Elmer (Boston, MA, USA) in a 50 μL reaction volume. The reaction cocktail was pipetted in 4 steps in the following order: 10 μL of non-radioactive ATP solution (in H2O), 25 μL of assay buffer/[γ-33P]-ATP mixture, 5 μL of test sample in 10% DMSO, 10 μL of enzyme/substrate mixture. The assay for all protein kinases contained 70 mM HEPES-NaOH pH 7.5, 3 mM MgCl2, 3 mM MnCl2, 3 μM Na-orthovanadate, 1.2 mM DTT, ATP, [γ-33P]-ATP, protein kinase, and substrate.The reaction cocktails were incubated at 30 °C for 60 min. The reaction was stopped with 50 μL of 2% (v/v) H3PO4, plates were aspirated and washed two times with 200 μL 0.9% (w/v) NaCl. Incorporation of 33Pi (counting of “cpm”) was determined with a microplate scintillation counter (Microbeta, Wallac). All assays were performed with a BeckmanCoulter Biomek 2000/SL robotic system.
(§5) For each kinase, the median value of the cpm of three wells with complete reaction cocktails, but without kinase, was defined as “low control” (n = 3). This value reflects unspecific binding of radioactivity to the plate in the absence of protein kinase but in the presence of the substrate. Additionally, for each kinase the median value of the cpm of three other wells with the complete reaction cocktail, but without any compound, was taken as the “high control”, i.e. full activity in the absence of any inhibitor (n = 3). The difference between high and low control was taken as 100% activity for each kinase. As part of the data evaluation the low control value of each kinase was subtracted from the high control value as well as from their corresponding “compound values”. The residual activity (in %) for each compound well was calculated by using the following formula: Res. Activity (%) = 100 × [(cpm of compound – low control)/(high control – low control)]
(§6) Based on each 10 corresponding residual activities, IC50 values were calculated using Prism 5.04 for Windows. The mathematical model used was “Sigmoidal response (variable slope)” with parameters “top” fixed at 100% and “bottom” at 0%. The fitting method used was a least-squares fit.

EGF-R wt [3] = biological target: T2, EGF-R wt; test: as above; conditions: for biochemical activity on EGFR wt compared with neratinib: not more than that of neratinib
Protocol: as §3, §4, §5, §6

EGF-R L858R = EGF-R L858R (Homo sapiens, UniProt P00533, L858R); test: as above
Protocol: as §3, §4, §5, §6

EGF-R T790M = EGF-R T790M (Homo sapiens, UniProt P00533, T790M); test: as above
Protocol: as §3, §4, §5, §6

EGF-R G719S = EGF-R G719S (Homo sapiens, UniProt P00533, G719S); test: as above
Protocol: as §3, §4, §5, §6

EGF-R d747-749/A750P = EGF-R d747-749/A750P (Homo sapiens, UniProt P00533, A750P/DEL747-749); test: as above
Protocol: as §3, §4, §5, §6

HER2 [4] = biological target: T1, HER2; test: as above
Protocol: as §3, §4, §5, §6

EGF-R L861Q = EGF-R L861Q (Homo sapiens, UniProt P00533, L861Q); test: as above
Protocol: as §3, §4, §5, §6

EGF-R T790M/L858R = EGF-R T790M/L858R (Homo sapiens, UniProt P00533, L858R/T790M); test: as above; conditions: for inhibitory activity on EGFR mutant containing both T790M and L858R, times stronger than neratinib: ratio of IC50 values to neratinib
Protocol: as §3, §4, §5, §6

T1 sequence (P04626 23-1255): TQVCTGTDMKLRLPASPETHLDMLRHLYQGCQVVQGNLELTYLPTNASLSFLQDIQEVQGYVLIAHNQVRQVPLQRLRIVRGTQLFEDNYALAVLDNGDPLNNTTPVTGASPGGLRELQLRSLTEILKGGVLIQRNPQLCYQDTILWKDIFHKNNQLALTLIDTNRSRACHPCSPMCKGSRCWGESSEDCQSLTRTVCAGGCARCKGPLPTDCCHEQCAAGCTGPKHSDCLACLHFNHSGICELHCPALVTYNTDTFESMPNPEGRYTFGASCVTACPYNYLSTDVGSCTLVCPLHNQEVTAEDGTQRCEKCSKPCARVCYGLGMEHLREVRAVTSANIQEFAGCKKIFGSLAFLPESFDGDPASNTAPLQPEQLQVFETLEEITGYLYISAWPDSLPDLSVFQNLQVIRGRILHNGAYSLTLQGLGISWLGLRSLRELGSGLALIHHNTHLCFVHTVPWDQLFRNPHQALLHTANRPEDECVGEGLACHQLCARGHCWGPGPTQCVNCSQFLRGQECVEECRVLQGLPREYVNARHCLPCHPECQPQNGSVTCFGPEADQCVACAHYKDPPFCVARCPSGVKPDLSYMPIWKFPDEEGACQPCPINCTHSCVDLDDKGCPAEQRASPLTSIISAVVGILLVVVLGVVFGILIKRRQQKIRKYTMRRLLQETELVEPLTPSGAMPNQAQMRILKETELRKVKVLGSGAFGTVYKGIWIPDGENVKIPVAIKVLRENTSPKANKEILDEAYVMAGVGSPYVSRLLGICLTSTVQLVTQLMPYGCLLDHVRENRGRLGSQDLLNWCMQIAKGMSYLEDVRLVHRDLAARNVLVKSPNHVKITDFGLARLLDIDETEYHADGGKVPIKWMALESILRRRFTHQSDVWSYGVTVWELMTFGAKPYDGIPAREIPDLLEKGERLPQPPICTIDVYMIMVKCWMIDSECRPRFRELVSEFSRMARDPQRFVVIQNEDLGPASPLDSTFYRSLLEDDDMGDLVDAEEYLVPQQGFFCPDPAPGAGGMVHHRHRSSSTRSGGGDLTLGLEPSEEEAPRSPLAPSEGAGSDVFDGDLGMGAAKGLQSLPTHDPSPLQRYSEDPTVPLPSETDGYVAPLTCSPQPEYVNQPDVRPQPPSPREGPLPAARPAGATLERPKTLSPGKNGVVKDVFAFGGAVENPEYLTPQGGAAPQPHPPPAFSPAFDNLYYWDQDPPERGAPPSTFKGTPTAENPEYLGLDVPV
T2 sequence (P00533 25-1210): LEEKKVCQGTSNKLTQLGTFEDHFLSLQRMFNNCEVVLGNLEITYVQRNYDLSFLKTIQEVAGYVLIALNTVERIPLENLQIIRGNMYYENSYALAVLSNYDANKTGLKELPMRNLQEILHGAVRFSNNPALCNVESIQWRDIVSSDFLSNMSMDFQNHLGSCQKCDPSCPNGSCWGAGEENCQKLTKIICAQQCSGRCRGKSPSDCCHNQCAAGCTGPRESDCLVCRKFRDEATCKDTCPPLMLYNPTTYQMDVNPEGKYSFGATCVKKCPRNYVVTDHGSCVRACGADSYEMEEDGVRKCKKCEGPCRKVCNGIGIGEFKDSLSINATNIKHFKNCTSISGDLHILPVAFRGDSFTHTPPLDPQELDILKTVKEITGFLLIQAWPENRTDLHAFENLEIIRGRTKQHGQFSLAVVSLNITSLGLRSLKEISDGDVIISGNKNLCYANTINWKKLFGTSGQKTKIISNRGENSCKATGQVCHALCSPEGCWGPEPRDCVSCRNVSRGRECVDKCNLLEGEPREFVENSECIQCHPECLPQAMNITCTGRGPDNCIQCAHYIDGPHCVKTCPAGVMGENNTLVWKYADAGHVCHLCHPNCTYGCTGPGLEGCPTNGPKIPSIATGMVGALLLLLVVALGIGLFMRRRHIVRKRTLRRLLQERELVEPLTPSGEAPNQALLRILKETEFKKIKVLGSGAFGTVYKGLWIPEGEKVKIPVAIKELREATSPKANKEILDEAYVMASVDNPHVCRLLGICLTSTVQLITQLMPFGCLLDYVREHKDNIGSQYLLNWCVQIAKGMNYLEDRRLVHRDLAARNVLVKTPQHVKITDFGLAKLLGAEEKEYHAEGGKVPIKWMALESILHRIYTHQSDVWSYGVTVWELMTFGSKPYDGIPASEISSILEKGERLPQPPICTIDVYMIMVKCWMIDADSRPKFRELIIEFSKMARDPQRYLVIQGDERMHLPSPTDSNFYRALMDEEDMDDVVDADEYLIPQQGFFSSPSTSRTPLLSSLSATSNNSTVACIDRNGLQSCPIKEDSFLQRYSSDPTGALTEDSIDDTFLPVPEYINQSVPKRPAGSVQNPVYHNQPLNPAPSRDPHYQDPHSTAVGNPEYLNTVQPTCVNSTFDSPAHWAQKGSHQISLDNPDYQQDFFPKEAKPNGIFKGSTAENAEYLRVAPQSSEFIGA
EGF-R T790M/L858R, sequence (P00533 25-1210 T790M/L858R): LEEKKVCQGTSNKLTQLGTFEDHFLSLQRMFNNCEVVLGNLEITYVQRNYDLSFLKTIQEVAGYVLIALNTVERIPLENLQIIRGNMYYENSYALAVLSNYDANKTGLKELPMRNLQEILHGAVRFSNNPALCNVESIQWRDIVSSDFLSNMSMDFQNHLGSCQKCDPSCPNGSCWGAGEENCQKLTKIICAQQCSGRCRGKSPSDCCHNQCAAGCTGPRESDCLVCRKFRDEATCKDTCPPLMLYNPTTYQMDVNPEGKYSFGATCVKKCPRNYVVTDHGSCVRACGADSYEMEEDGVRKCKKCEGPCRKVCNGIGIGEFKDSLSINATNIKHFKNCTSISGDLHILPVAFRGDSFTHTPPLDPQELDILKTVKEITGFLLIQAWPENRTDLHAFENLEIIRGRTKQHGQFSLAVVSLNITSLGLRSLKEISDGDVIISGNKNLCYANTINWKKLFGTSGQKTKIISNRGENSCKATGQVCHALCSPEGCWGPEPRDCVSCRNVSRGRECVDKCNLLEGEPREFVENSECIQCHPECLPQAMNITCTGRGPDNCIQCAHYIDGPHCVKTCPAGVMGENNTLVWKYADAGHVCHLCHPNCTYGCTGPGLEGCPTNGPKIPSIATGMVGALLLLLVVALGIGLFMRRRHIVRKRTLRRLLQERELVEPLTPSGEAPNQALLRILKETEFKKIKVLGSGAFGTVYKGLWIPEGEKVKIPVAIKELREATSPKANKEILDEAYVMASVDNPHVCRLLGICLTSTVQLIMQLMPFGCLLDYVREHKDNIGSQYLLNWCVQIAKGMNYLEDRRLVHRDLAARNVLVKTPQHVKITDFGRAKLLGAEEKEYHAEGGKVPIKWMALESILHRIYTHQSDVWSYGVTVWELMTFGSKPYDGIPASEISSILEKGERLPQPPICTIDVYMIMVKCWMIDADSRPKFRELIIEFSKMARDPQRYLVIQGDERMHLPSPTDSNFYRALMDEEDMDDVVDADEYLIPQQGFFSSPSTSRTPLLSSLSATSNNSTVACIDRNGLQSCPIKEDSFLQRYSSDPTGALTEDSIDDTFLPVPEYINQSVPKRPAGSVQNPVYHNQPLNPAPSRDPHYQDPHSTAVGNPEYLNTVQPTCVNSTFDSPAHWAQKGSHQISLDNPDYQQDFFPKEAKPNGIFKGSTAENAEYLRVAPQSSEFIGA
EGF-R d747-749/A750P, sequence (P00533 with tags, fused parts or gaps DEL747-749/A750P limits assumed): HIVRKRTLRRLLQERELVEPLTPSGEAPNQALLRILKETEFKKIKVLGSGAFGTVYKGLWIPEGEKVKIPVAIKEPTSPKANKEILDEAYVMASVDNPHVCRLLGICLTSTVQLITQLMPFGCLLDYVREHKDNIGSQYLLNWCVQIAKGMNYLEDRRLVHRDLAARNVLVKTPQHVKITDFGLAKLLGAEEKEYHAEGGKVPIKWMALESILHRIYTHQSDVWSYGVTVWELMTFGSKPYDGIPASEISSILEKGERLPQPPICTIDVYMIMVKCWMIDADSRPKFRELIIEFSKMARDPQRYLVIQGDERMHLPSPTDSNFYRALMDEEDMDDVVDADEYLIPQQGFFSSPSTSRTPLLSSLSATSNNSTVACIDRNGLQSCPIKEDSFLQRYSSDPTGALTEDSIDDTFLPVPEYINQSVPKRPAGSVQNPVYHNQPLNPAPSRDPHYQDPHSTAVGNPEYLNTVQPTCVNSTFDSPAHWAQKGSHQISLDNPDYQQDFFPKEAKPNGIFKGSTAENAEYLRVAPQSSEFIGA
EGF-R d752-759, sequence (P00533 with tags, fused parts or gaps DEL752-759 limits assumed): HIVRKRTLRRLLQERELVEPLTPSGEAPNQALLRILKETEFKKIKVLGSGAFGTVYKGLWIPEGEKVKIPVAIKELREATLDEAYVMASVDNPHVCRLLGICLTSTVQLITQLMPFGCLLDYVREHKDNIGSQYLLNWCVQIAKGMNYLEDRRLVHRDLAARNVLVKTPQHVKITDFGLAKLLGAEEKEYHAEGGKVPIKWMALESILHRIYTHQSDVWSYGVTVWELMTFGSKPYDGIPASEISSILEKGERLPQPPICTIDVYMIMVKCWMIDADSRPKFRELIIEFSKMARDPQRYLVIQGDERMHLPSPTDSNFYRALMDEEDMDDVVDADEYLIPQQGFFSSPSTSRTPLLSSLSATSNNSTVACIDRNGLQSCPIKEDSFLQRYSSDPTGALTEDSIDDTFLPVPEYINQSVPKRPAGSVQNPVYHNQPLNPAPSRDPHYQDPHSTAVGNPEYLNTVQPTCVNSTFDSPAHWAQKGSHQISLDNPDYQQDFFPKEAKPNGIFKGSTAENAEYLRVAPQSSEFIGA

Row | SMILES | remaining activity at 0.5 µM (HER2 [1]) [%] | remaining activity at 0.5 µM (EGF-R wt [2]) [%] | IC50 (EGF-R d752-759) [nM] | IC50 (EGF-R wt [3]) [nM] | biochemical activity on EGFR wt compared with neratinib (EGF-R wt [3]) | IC50 (EGF-R L858R) [nM] | IC50 (EGF-R T790M) [nM] | IC50 (EGF-R G719S) [nM] | IC50 (EGF-R d747-749/A750P) [nM] | IC50 (HER2 [4]) [nM] | IC50 (EGF-R L861Q) [nM] | IC50 (EGF-R T790M/L858R) [nM] | inhibitory activity on EGFR mutant containing both T790M and L858R, times stronger than neratinib (EGF-R T790M/L858R) [times]
1 | C=CC(=O)N1CC2(CCN(C)CC2)c2cc(OC)c(Nc3ncc(C#N)c(Nc4ccc(OCc5ccccn5)cc4)n3)cc21 [Compound A1, 2-{[5-methoxy-1′-methyl-1-(prop-2-enoyl)-1,2-dihydrospiro[indole-3,4′ -piperidine]-6-yl]amino}-4-{[4-(pyridin-2-ylmethoxy)phenyl]amino}pyrimidine-5-carbonitrile] | 9 | 7 | 210 | 61 | within five times | 86 | 89 | 200 | 53 | 260 | 76 | 90 | 31
2 | C=CC(=O)N1CC2(CCN(C)CC2)c2cc(OC)c(Nc3ncc(C#N)c(Nc4ccc(OCc5ccccn5)c(Cl)c4)n3)cc21 [Compound A2, 4-{[3-chloro-4-(pyridin-2-ylmethoxy)phenyl]amino}-2-{[5-methoxy-1′-methyl-1-(prop-2-enoyl)-1,2-dihydrospiro[indole-3,4′-piperidine]-6-yl]amino}pyrimidine-5-carbonitrile] | 5 | 6 | 200 | 59 | within five times | 81 | 130 | 240 | 54 | 310 | 81 | 80 | 31
